Experimental data published in patent publication US20080312255A1 (ASTRAZENECA AB, priority 2007, published 2008).
Structures can show the parent of a compound that is named as a salt.

Biological target: S. aureus GyrB ATPase (Staphylococcus aureus, UniProt P0A0K8)
Assay: S. aureus GyrB ATPase inhibition (ammonium molybdate/malachite green phosphate detection)
Format: biochemical
Details: compound concentration of 1 μM
Experimental: S. aureus GyrB ATPase Inhibition Activity: Compounds may be tested for inhibition of S. aureus GyrB ATPase activity using an ammonium molybdate/malachite green-based phosphate detection assay (Lanzetta, P. A., L. J. Alvarez, P. S. Reinach, and O. A. Candia, 1979, 100: 95-97). Assays can be performed in multiwell plates in 30 μl reactions containing: 50 mM Hepes buffer pH 7.5, 75 mM ammonium acetate, 8.0 mM magnesium chloride, 0.5 mM ethylenediaminetetraacetic acid, 5% glycerol, 1.0 mM 1,4-Dithio-DL-threitol, 200 nM bovine serum albumin, 1.0 μg/ml sheared salmon sperm DNA, 250 pM E. coli GyrA, 250 pM S. aureus GyrB, 250 μM ATP, and compound in dimethylsulfoxide. Reactions can be quenched with […] of ammonium molybdate/malachite green detection reagent containing 1.2 mM malachite green hydrochloride, 8.5 mM ammonium molybdate tetrahydrate, and 1 M hydrochloric acid. Plates can be read in an absorbance plate reader at 650 nm and percent inhibition values can be calculated using dimethylsulfoxide (2%)-containing reactions as 0% inhibition and EDTA-containing ([…]) reactions as 100% inhibition controls. An IC50 measurement of compound potency for each compound can be determined from reactions performed in the presence of 10 different compound concentrations.
Compounds of the invention were tested in an assay substantially similar to the assay described above for measuring the inhibition of S. aureus GyrB ATPase. Percent inhibition of S. aureus GyrB ATPase at a compound concentration of 1 μM (unless otherwise noted) is disclosed in the following table: […]

S. aureus GyrB ATPase, sequence (P0AES4 whole entry): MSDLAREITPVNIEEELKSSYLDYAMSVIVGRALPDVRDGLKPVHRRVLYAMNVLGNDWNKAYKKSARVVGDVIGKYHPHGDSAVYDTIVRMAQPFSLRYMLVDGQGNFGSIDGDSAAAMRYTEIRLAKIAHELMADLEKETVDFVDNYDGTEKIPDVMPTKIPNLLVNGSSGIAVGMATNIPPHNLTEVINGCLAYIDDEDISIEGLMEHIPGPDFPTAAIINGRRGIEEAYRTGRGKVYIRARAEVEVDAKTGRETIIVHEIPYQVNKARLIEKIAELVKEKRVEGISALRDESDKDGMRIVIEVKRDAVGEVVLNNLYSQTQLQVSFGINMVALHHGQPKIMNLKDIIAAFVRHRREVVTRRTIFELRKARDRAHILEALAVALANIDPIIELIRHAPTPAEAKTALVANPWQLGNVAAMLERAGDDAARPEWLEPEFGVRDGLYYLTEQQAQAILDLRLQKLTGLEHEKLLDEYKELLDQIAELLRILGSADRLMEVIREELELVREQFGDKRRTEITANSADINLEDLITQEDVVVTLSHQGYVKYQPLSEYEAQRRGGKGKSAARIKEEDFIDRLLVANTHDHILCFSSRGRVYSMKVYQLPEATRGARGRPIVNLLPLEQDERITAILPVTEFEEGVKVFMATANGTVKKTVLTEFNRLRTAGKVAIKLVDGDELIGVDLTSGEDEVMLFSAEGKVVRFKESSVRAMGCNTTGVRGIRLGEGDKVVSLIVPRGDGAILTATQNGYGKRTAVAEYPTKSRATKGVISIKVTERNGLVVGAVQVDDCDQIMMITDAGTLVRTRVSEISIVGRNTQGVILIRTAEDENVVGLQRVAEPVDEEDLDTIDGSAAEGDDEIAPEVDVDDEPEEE
S. aureus GyrB ATPase, sequence (P0A0K8 whole entry): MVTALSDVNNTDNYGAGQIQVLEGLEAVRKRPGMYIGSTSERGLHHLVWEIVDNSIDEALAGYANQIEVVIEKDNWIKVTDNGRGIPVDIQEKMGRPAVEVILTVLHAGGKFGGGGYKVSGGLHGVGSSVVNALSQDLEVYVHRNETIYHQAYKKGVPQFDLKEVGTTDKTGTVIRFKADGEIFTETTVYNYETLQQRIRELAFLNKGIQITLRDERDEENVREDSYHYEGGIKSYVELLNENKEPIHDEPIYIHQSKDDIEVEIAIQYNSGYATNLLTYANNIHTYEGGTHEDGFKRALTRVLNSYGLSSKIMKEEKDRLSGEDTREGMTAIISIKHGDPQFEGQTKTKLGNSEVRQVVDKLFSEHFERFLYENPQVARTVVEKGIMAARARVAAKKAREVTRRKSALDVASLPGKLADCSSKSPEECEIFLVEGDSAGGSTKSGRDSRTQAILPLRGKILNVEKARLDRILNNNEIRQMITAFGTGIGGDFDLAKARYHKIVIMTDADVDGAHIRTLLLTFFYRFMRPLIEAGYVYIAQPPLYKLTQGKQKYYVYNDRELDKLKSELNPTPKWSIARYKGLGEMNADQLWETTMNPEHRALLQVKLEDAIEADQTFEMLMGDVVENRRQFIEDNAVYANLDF

SMILES | inhibition at 1 µM [%]
COCn1ccnc1-c1nc(N2CC[C@@H](NC(=O)c3[nH]c(C)c(Cl)c3Cl)[C@@H](OC)C2)sc1C(=O)OC [Example 58, methyl 2-((3S,4R)-4-{[(3,4-dichloro-5-methyl-1H-pyrrol-2-yl)carbonyl]amino}-3-methoxypiperidin-1-yl)-4-[1-(methoxymethyl)-1H-imidazol-2-yl]-1,3-thiazole-5-carboxylate] | 99.5
CO[C@H]1CN(c2nc(-c3n(C)cc[n+]3C)c(C(=O)O)s2)CC[C@H]1NC(=O)c1[nH]c(C)c(Cl)c1Cl [Example 22, 2-[5-Carboxy-2-((3S,4R)-4-{[(3,4-dichloro-5-methyl-1H-pyrrol-2-yl)carbonyl]amino}-3-methoxypiperidin-1-yl)-1,3-thiazol-4-yl]-1,3-dimethyl-1H-imidazol-3-ium trifluoroacetate] | 101
Cc1[nH]c(C(=O)N[C@@H]2CCN(c3nc(-c4ncccc4F)c(C(=O)O)s3)C[C@@H]2OCc2ccccc2)c(C#N)c1Cl [Example 154, 2-[(3S,4R)-3-(benzyloxy)-4-{[(4-chloro-3-cyano-5-methyl-1H-pyrrol-2-yl)carbonyl]amino}piperidin-1-yl]-4-(3-fluoropyridin-2-yl)-1,3-thiazole-5-carboxylic acid] | 112
COC(=O)c1sc(N2CC[C@@H](NC(=O)c3[nH]c(C)c(Cl)c3Cl)[C@@H](F)C2)nc1-c1ncnn1C [Example 67] | 75.2
CCOC(=O)c1sc(N2CC[C@@H](NC(=O)c3[nH]c(C)c(Cl)c3Cl)[C@@H](OC)C2)nc1-c1cn(C)cn1 [Example 77] | 100
CCOC(=O)c1sc(N2CC[C@@H](NC(=O)c3[nH]c(C)c(Cl)c3Cl)[C@@H](OC)C2)nc1-c1nc2ccccc2s1 [Example 54] | 97.8
CNc1nc(-c2nc(N3CC[C@@H](NC(=O)c4[nH]c(C)c(Cl)c4Cl)[C@@H](F)C3)sc2C(=O)O)cs1 [Example 37, 2-((3S,4R)-4-{[(3,4-Dichloro-5-methyl-1H-pyrrol-2-yl)carbonyl]amino}-3-fluoropiperidin-1-yl)-2′-(methylamino)-4,4′-bi-1,3-thiazole-5-carboxylic acid] | 101
COCCn1ccnc1-c1nc(N2CC[C@@H](NC(=O)c3[nH]c(C)c(Cl)c3C#N)[C@@H](OCc3ccccc3)C2)sc1C(=O)O [Example 153] | 98.6
COc1ccnc(-c2nc(N3CC[C@@H](NC(=O)c4[nH]c(C)c(Cl)c4Cl)[C@@H](OC)C3)sc2C(=O)O)n1 [Example 42, 2-((3S,4R)-4-{[(3,4-Dichloro-5-methyl-1H-pyrrol-2-yl)carbonyl]amino}-3-methoxypiperidin-1-yl)-4-(4-methoxypyrimidin-2-yl)-1,3-thiazole-5-carboxylic acid] | 99.9
Cc1[nH]c(C(=O)N[C@@H]2CCN(c3nc(-c4nccs4)c(C(=O)O)s3)C[C@@H]2F)c(Cl)c1Cl [Example 6, 2′-((3S,4R)-4-{[(3,4-Dichloro-5-methyl-1H-pyrrol-2-yl)carbonyl]amino}-3-fluoropiperidin-1-yl)-2,4′-bi-1,3-thiazole-5′-carboxylic acid] | 99.9
COCCn1ccnc1-c1nc(N2CC[C@@H](NC(=O)c3[nH]c(C)c(Cl)c3Cl)[C@@H](OC)C2)sc1C(=O)OC [Example 64] | 96.2
COC(=O)c1sc(N2CC[C@@H](NC(=O)c3[nH]c(C)c(Cl)c3Cl)[C@@H](F)C2)nc1-c1cccc(OC)n1 [Example 100, methyl 2-((3S,4R)-4-(3,4-dichloro-5-methyl-1H-pyrrole-2-carboxamido)-3-fluoropiperidin-1-yl)-4-(6-methoxypyridin-2-yl)thiazole-5-carboxylate] | 112
COC(=O)c1sc(N2CC[C@@H](NC(=O)c3[nH]c(C)c(Cl)c3Cl)[C@@H](F)C2)nc1-c1cn(C)nn1 [Example 99, methyl 2-((3S,4R)-4-(3,4-dichloro-5-methyl-1H-pyrrole-2-carboxamido)-3-fluoropiperidin-1-yl)-4-(1-methyl-1H-1,2,3-triazol-4-yl)thiazole-5-carboxylate] | 102
Cc1[nH]c(C(=O)N[C@@H]2CCN(c3nc(-c4ncnn4C)c(C(=O)O)s3)C[C@@H]2OCc2ccccc2)c(C#N)c1Cl [Example 151, 2-[(3S,4R)-3-(benzyloxy)-4-{[(4-chloro-3-cyano-5-methyl-1H-pyrrol-2-yl)carbonyl]amino}piperidin-1-yl]-4-(1-methyl-1H-1,2,4-triazol-5-yl)-1,3-thiazole-5-carboxylic acid] | 115
Cc1[nH]c(C(=O)N[C@@H]2CCN(c3nc(-c4nc5ccccc5s4)c(C(=O)O)s3)C[C@@H]2F)c(Cl)c1Cl [Example 15, 4-(1,3-Benzothiazol-2-yl)-2-((3S,4R)-4-{[(3,4-dichloro-5-methyl-1H-pyrrol-2-yl)carbonyl]amino}-3-fluoropiperidin-1-yl)-1,3-thiazole-5-carboxylic acid] | 101
CO[C@H]1CN(c2nc(-c3cn(C)nn3)c(C(=O)O)s2)CC[C@H]1NC(=O)c1[nH]c(C)c(Cl)c1C#N [Example 120, 2-((3S,4R)-4-(4-chloro-3-cyano-5-methyl-1H-pyrrole-2-carboxamido)-3-methoxypiperidin-1-yl)-4-(1-methyl-1H-1,2,3-triazol-4-yl)thiazole-5-carboxylic acid] | 104
CCOC(=O)c1sc(N2CC[C@@H](NC(=O)c3[nH]c(C)c(Cl)c3Cl)[C@@H](OC)C2)nc1-c1ccccn1 [Example 48] | 100
Cc1[nH]c(C(=O)N[C@@H]2CCN(c3nc(-c4cnccn4)c(C(=O)O)s3)C[C@@H]2OCc2ccccc2)cc1Cl [Example 150, 2-[(3S,4R)-3-(benzyloxy)-4-{[(4-chloro-5-methyl-1H-pyrrol-2-yl)carbonyl]amino}piperidin-1-yl]-4-(pyrazin-2-yl)-1,3-thiazole-5-carboxylic acid] | 102
COCn1ccnc1-c1nc(N2CC[C@@H](NC(=O)c3[nH]c(C)c(Cl)c3Cl)[C@@H](OC)C2)sc1C(=O)O [Example 17, 2-((3S,4R)-4-{[(3,4-Dichloro-5-methyl-1H-pyrrol-2-yl)carbonyl]amino}-3-methoxypiperidin-1-yl)-4-[1-(methoxymethyl)-1H-imidazol-2-yl]-1,3-thiazole-5-carboxylic acid] | 97.7
COCn1ccnc1-c1nc(N2CC[C@@H](NC(=O)c3[nH]c(C)c(Cl)c3Cl)[C@@H](F)C2)sc1C(=O)O [Example 19, 2-((3S,4R)-4-{[(3,4-Dichloro-5-methyl-1H-pyrrol-2-yl)carbonyl]amino}-3-fluoropiperidin-1-yl)-4-[1-(methoxymethyl)-1H-imidazol-2-yl]-1,3-thiazole-5-carboxylic acid] | 102
COc1cccc(-c2nc(N3CC[C@@H](NC(=O)c4[nH]c(C)c(Cl)c4Cl)[C@@H](F)C3)sc2C(=O)O)n1 [Example 117, 2-((3S,4R)-4-(3,4-dichloro-5-methyl-1H-pyrrole-2-carboxamido)-3-fluoropiperidin-1-yl)-4-(6-methoxypyridin-2-yl)thiazole-5-carboxylic acid] | 108
CO[C@H]1CN(c2nc(-c3csc(N)n3)c(C(=O)O)s2)CC[C@H]1NC(=O)c1[nH]c(C)c(Cl)c1Cl [Example 33, 2′-Amino-2-((3S,4R)-4-{[(3,4-dichloro-5-methyl-1H-pyrrol-2-yl)carbonyl]amino}-3-methoxypiperidin-1-yl)-4,4′-bi-1,3-thiazole-5-carboxylic acid] | 101
CCOC(=O)c1sc(N2CC[C@@H](NC(=O)c3[nH]c(C)c(Cl)c3Cl)[C@@H](F)C2)nc1-c1cc(OC)ccn1 [Example 98, Ethyl 2-((3S,4R)-4-(3,4-dichloro-5-methyl-1H-pyrrole-2-carboxamido)-3-fluoropiperidin-1-yl)-4-(4-methoxypyridin-2-yl)thiazole-5-carboxylate] | 84.4
COC(=O)c1sc(N2CC[C@@H](NC(=O)c3[nH]c(C)c(Cl)c3Cl)[C@@H](OC)C2)nc1-c1cn(C)nn1 [Example 92, methyl 2-((3S,4R)-4-(3,4-dichloro-5-methyl-1H-pyrrole-2-carboxamido)-3-methoxypiperidin-1-yl)-4-(1-methyl-1H-1,2,3-triazol-4-yl)thiazole-5-carboxylate] | 100
Cc1[nH]c(C(=O)N[C@@H]2CCN(c3nc(-c4ncc[nH]4)c(C(=O)O)s3)C[C@@H]2F)c(Cl)c1Cl [Example 20, 2-((3S,4R)-4-{[(3,4-Dichloro-5-methyl-1H-pyrrol-2-yl)carbonyl]amino}-3-fluoropiperidin-1-yl)-4-(1H-imidazol-2-yl)-1,3-thiazole-5-carboxylic acid] | 98.6
CCOC(=O)c1sc(N2CC[C@@H](NC(=O)c3[nH]c(C)c(Cl)c3Cl)[C@@H](F)C2)nc1-c1ccccn1 [Example 49] | 112
Cc1[nH]c(C(=O)N[C@@H]2CCN(c3nc(-c4ncccc4F)c(C(=O)O)s3)C[C@@H]2F)c(Cl)c1Cl [Example 119, 2-((3S,4R)-4-(3,4-dichloro-5-methyl-1H-pyrrole-2-carboxamido)-3-fluoropiperidin-1-yl)-4-(3-fluoropyridin-2-yl)thiazole-5-carboxylic acid] | 79.4
